Counter-ions that a name gives are not always drawn. Like-named read-outs stand apart in the source and are kept apart here.
How the values were obtained:
5HT7 receptor = 5HT7 receptor (Homo sapiens, UniProt P34969); conditions: statement in the definitions; cited from earlier work
Male CD1 mice [1] = experiment: Tail Flick Test; type: in vivo
5-HT6 = 5-HT6 (Homo sapiens, UniProt P50406); experiment: 5-HT6 inhibition; type: binding; conditions: 10^−7M; as dihydrochloride; read-out: 5-HT6 inhib. (10^−7M) (%)
[2] = target: T1, Cloned Human Serotonin Receptor, Subtype 7 (h5HT7) (Homo sapiens, UniProt P34969); experiment: Radioligand binding 5HT7
T1 construct: purchased PerkinElmer 6120512; host or cells: CHO cells
Protocol: Radioligand binding assays were performed using the Cloned Human Serotonin Receptor, Subtype 7 (h5HT7), expressed in CHO cells, coated on Flashplate (Basic FlashPlate Cat.: SMP200) from PerkinElmer (Cat.: 6120512). The protocol assay was essentially the recommended protocol in the Technical Data Sheet by PerkinEmer Life and Analytical Sciences. The Mass membrane protein/well was typically 12 μg and the Receptor/well was about 9-10 fmoles. The Flashplate were let equilibrate at room temperature for one hour before the addition of the components of the assay mixture. The binding buffer was: 50 mM Tris-HCl, pH 7.4, containing 10 mM MgCl2, 0.5 mM EDTA and 0.5% BSA. The radioligand was [^125I]LSD at a final concentration of 0.82 nM. Nonspecific binding was determined with 50 μM of Clozapine. The assay volume was 25 μl. TopSeal-A were applied onto Flashplate microplates and they were incubated at room temperature for 240 minutes in darkness. The radioactivity were quantified by liquid scintillation spectrophotometry (Wallac 1450 Microbeta Trilux) with a count delay of 4 minutes prior to counting and a counting time of 30 seconds per well. Competition binding data were analyzed by using the LIGAND program (Munson and Rodbard, LIGAND: A versatile, computerized approach for characterization of ligand-binding systems. Anal. Biochem. 107: 220-239, 1980) and assays were performed in triplicate determinations for each point.

Male CD1 mice [3] = conditions: day 5; morphine 4 mg/kg alone (vs Non-Tolerant) or + Chemical Example 1 10 mg/kg (vs morphine only); FIG. 12
Protocol: Briefly, the animals (male CD1 mice) were restrained in a Plexiglas tube and placed on the tail flick apparatus (LI 7100, Letica, S. A., Spain). A noxious beam of light was focussed on the tail, and the tail flick latency was recorded automatically to the nearest 0.1 s. The intensity of the radiant heat source was adjusted to yield baseline latencies between 2 and 3 s; this intensity was never changed and any animal whose baseline latency was outside the pre-established limits was excluded from the experiments. In order to minimise injury in the animals, a cut-off time of 10 s was used. The animals received an s.c. injection of the vehicle (saline), drug or drug combination under study, and tail flick latencies were measured and are measured at 45 min after drug or vehicle administration. Baseline tail flick latencies were recorded after saline/vehicle injection. By comparing to baseline (defined as 0% analgesia) and to a failure of pain reaction/tail flick (defined as 100% analgesia) Percentage of analgesia was determined.
Male CD1 Mice were divided in 2 groups, the group receiving s.c. injections of morphine in high doses to develop tolerance (hereinafter called Tolerants), and the group receiving only vehicle (called Non-Tolerants). […]
The mice were placed 45 minutes after injection in the tail-flick apparatus. The Baseline was determined based on saline injection. […]

Male CD1 mice [4] = experiment: animal or person; conditions: Mus musculus, sc
Protocol: Male CD1 mice aged from 6 to 8 weeks old were used in these studies. Animals were housed in groups of five, provided with food and water ad libitum and kept in controlled laboratory conditions with the temperature maintained at 21±1° C. and light in 12 h cycles (on at 07:00 h and off at 19:00 h). Experiments were carried out in a soundproof and air-regulated experimental room. The number of mice ranged from 8 to 16 per group in each individual experiment.
All the compounds were dissolved in physiological saline and administered in a volume of 5 ml/kg of body weight through the subcutaneous (s.c.) route. When compounds were co-administered, they were injected s.c. opposite flanks of the mice. The doses of drugs refer to their salt forms.
The analgesic activity of the inventive active substance combination is determined in male CD1 following and adapting the description in the publication of G. Woolfe and A. D. MacDonald, J. Pharm.
(§1) The mice were kept on the hot plate for no longer than 450 seconds in order to avoid the development of cutaneous lesions. The vehicle, the active substances and the inventive active substance combination to be tested were administered—sometimes in differing concentrations—by s.c. injection to different groups of mice. 0.5 hours after the administration the animals are put onto the hot plate and the time is measured until they show signs of pain, divided by Fore Paw Licking (FPL), Hind Paw Licking (HPL) and Jumping, to allow conclusions on differentiations of pain types through the different pain symptoms/signs of pain. The analgesic efficacy of the active substances or active substance combination is calculated on the basis of the values obtained for the comparison group of mice to which is only administered the vehicle (baseline). By comparing to baseline (defined as 0% analgesia) and to a failure of pain signs (defined as 100% analgesia) Percentage of analgesia was determined. In some cases based on this calculation and with different concentrations of the active substances or active substance combination ED50 values were determined.

Male CD1 mice [5] = conditions: day 5, morphine 4 mg/kg alone (vs Non-Tolerant) or + Chemical Example 1 10 mg/kg (vs morphine only)
Protocol: as §1
Male CD1 Mice were divided in 2 groups, the group receiving s.c. injections of morphine in high doses to develop tolerance (hereinafter called Tolerants), and the group receiving only vehicle (called Non-Tolerants). The following treatment scheme was followed:
The mice were placed 30 minutes after injection on the hot plate heated to 50° C. The signs of pain shown were divided by Fore Paw Licking (FPL), Hind Paw Licking (HPL) and Jumping and measured/counted. The Baseline was determined based on saline injection. Significance values were determined vs. respective “non tolerant” group, the “Morphine-tolerant group” or the “Morphine-non tolerant group” with *** p<0.001 vs. respective “non tolerant” group, # # # p<0.001 vs. “Morphine-tolerant group” and α α α p<0.001 vs. “Morphine-non tolerant group” (Newman-Keuls Multiple Comparison Test post-ANOVA).

[6] = read-out: 5-HT7 %-Inhib. (10^−6 M)
[7] = read-out: 5-HT7 %-Inhib. (10^−7 M)
[8] = read-out: 5-HT7 %-Inhib. (10^−8 M)

T1 sequence (P34969 whole entry): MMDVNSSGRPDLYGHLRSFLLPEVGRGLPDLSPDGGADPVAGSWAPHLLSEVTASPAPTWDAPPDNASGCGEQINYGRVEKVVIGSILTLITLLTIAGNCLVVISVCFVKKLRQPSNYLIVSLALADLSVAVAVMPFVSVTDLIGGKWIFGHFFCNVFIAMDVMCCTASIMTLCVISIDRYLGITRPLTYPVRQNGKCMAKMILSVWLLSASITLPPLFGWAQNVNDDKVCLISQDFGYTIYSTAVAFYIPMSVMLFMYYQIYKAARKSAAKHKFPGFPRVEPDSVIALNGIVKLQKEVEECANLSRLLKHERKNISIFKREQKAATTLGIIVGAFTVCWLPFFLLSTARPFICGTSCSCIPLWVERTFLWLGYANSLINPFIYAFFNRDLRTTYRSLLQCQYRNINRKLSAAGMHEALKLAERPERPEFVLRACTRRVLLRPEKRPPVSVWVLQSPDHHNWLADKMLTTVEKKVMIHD
5-HT6, sequence (P50406 whole entry, species assumed): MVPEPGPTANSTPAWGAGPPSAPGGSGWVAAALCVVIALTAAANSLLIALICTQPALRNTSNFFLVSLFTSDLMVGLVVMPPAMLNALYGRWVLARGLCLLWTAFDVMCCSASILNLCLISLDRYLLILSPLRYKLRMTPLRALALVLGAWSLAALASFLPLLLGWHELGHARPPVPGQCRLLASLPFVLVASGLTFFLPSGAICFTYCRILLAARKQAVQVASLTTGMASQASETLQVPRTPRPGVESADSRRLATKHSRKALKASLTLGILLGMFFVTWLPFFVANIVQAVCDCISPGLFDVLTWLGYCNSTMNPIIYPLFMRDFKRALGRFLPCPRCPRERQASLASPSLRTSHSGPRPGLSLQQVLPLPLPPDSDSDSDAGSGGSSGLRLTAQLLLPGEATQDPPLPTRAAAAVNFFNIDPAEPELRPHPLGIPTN
5HT7 receptor, sequence (P34969 whole entry): as the sequence (P34969 whole entry) above

SMILES	inhibition at 0.1 µM ([2]; read-out: % Inh (10^−7 M)) [%]	inhibition at 0.01 µM ([2]; read-out: % Inh (10^−8 M)) [%]	inhibition at 1 µM ([2]; read-out: % Inh (10^−6 M)) [%]	other results
CCCN(CCC)C1CCc2cccc(O)c2C1 (stereo not shown) [8-OH-DPAT]	–	–	–	agonist classification on the 5-HT7 receptor (5HT7 receptor): agonist
Cc1nn(C)c(C)c1-c1cccc(CCN(C)C)c1 [Chemical Example 1]	98.6	60.8	–	effect on efficacy of a low dose of morphine, tail flick (Male CD1 mice [1]; 1.25, 2.5, 5 or 10 mg/kg s.c. + morphine 2 mg/kg (FIG. 9B)): increases in a dose-dependent manner; analgesic effect per se, tail flick (Male CD1 mice [1]; 1.25, 2.5, 5 or 10 mg/kg s.c. alone (FIG. 9B)): devoid of effect per se; inhibition at 0.1 µM (5-HT6): 5.4%
CCN(CC)CCc1cccc(-c2c(C)nn(C)c2C)c1 [Chemical Example 3, Diethyl-{2-[3-(1,3,5-trimethyl-1H-pyrazol-4-yl)-phenyl]-ethyl}-amine]	41.5	4.8	98.1	–
CCCN(CCC)CCc1cccc(-c2c(C)nn(C)c2C)c1 [Chemical Example 4, Dipropyl-{2-[3-(1,3,5-trimethyl-1H-pyrazol-4-yl)-phenyl]-ethyl}-amine]	98.7	48.6	90	–
Cc1cccc(C)c1-c1cccc(CCN(C)C)c1 [Chemical Example 9, [2-(2′,6′-Dimethyl-biphenyl-3-yl)-ethyl]-dimethyl-amine]	88.9	65.9	105	–
CCN(CC)CCc1cccc(-c2c(C)cccc2C)c1 [Chemical Example 11, [2-(2′,6′-Dimethyl-biphenyl-3-yl)-ethyl]-diethyl-amine]	62.3	-13.7	98.2	–
CCCN(CCC)CCc1cccc(-c2c(C)cccc2C)c1 [Chemical Example 12, [2-(2′,6′-Dimethyl-biphenyl-3-yl)-ethyl]-dipropyl-amine]	92.2	43.8	93.3	–
COc1cccc(OC)c1-c1cccc(CCN(C)C)c1 [Chemical Example 13, [2-(2′,6′-Dimethoxy-biphenyl-3-yl)-ethyl]-dimethyl-amine]	60.5	54.4	105	–
CN(C)CCc1cccc(-c2cnn(C)c2)c1 [Chemical Example 17, Dimethyl-{2-[3-(1-methyl-1H-pyrazol-4-yl)-phenyl]-ethyl}-amine]	16.9	-1	46	–
COc1ccccc1-c1cccc(CCN(C)C)c1 [Chemical Example 21, [2-(2′-Methoxy-biphenyl-3-yl)-ethyl]-dimethyl-amine]	69.2	20	95.4	–
CCCN(CCC)CCc1cccc(-c2ccccc2OC)c1 [Chemical Example 24, [2-(2′-Methoxy-biphenyl-3-yl)-ethyl]-dipropyl-amine]	37.8	-1.8	92.4	–
Cc1nn(C)c(C)c1-c1cccc2c1CC[C@H](N(C)Cc1ccccc1)C2 [Chemical Example F, (2S)-Benzyl-methyl-[5-(1,3,5-trimethyl-1H-pyrazol-4-yl)-1,2,3,4-tetrahydro-naphthalen-2-yl]-amine]	–	–	–	inhibition at 1 µM [2, 6]: 110%; inhibition at 0.1 µM [2, 7]: 44.7%; inhibition at 0.01 µM [2, 8]: 16.3%
CN[C@H]1CCc2c(cccc2-c2c(C)nn(C)c2C)C1 [Chemical Example H, (2S)-Methyl-[5-(1,3,5-trimethyl-1H-pyrazol-4-yl)-1,2,3,4-tetrahydro-naphthalen-2-yl]-amine hydrochloride]	–	–	–	IC50 [2]: 2.3 nM; inhibition at 1 µM [2, 6]: 98.1%; inhibition at 0.1 µM [2, 7]: 97.8%; inhibition at 0.01 µM [2, 8]: 86.1%
Cc1nn(C)c(C)c1-c1cccc2c1CC[C@@H](N(C)C)C2 [Chemical Example J, (2R)-Dimethyl-[5-(1,3,5-trimethyl-1H-pyrazol-4-yl)-1,2,3,4-tetrahydro-naphthalen-2-yl]-amine hydrochloride]	–	–	–	inhibition at 1 µM [2, 6]: 59.6%; inhibition at 0.1 µM [2, 7]: 9.6%; inhibition at 0.01 µM [2, 8]: -1.8%
Cc1nn(C)c(C)c1-c1cccc2c1CCC(N(C)C)C2 (stereo not shown) [Chemical Example K, Dimethyl-[5-(1,3,5-trimethyl-1H-pyrazol-4-yl)-1,2,3,4-tetrahydro-naphthalen-2-yl]-amine]	–	–	–	IC50 [2]: 3.9 nM; inhibition at 0.1 µM [2, 7]: 91.3%; inhibition at 0.01 µM [2, 8]: 38.8%
Cc1cccc(S(=O)(=O)N(C)[C@H](C)CCN2CCC(C)CC2)c1.Cl [SB-258719, (R)-3,N-Dimethyl-N-(1-methyl-3-(4-methylpiperidin-1-yl)propyl)benzene sulfonamide hydrochloride]	–	–	–	change in the morphine effect, tail flick (Male CD1 mice [1]; SB-258719 10 mg/kg + varying doses of morphine s.c.): did not produce any significant change; effect on potenciation of morphine analgesia exerted by Chemical Example 1, tail flick (Male CD1 mice [1]; morphine 2 mg/kg + Chemical Example 1 10 mg/kg + SB-258719 10 mg/kg s.c. (FIG. 9C)): reverted
CN1CC[C@]23c4c5ccc(O)c4O[C@H]2[C@@H](O)C=C[C@H]3[C@H]1C5 [morphine]	–	–	–	analgesic effect, tail flick, Tolerant group (Male CD1 mice [3]): significantly reduced; ED50 (Male CD1 mice [4]; read-out: ED50, Fore Paw Licking (FPL)): 24 mg/kg; ED50 (Male CD1 mice [4]; read-out: ED50, Hind Paw Licking (HPL)): 9.28 mg/kg; ED50 (Male CD1 mice [4]; read-out: ED50, Jumping): 3.19 mg/kg; analgesic effect, FPL, Tolerant group (Male CD1 mice [5]; FIG. 10A): reduced; analgesic effect, HPL, Tolerant group (Male CD1 mice [5]; FIG. 10B): reduced; analgesic effect, Jump, Tolerant group (Male CD1 mice [5]; FIG. 11): reduced

Reference: patent US20100197717A1, “COMBINATION OF A 5HT7 RECEPTOR LIGAND AND AN OPIOID RECEPTOR LIGAND” (priority 2007, published 2010)
